Laboratory results published in US11959095B2, “Compositions, cell constructs, and methods of making and using the same” (Wake Forest University Health Sciences, priority 2016, dated 2024).

Assays:
U138 spheroids = assay: WNT pathway modulation in GBM U138 spheroids in hydrogel; type: cell-based
Experimental: For the WNT experiments, spheroids of GBM U 138(ATCC® HTB-16™) cell line were formed by hanging drop method in a 96 well plate by using 10,000 cells per drop of 20 μl, which were cultured for 72 hours in high glucose DMEM before being harvested to be setup in HyStem HP-Hydrogels. The spheroids were placed sandwiched between two layers of gel of total volume of 250 μl. The spheroids were then given different media compositions. Normal high glucose media being the control, the spheroids behaviour in WNT pathway agonist BIO and WNT pathway antagonist XAV939 were studied.
Experiments were conducted with single cell cancer spheroids with U138 cells. The WNT pathway was manipulated by adding either an agonist of the WNT pathway BIO or an antagonist of the WNT pathway XAV939 to the media.

liver organoids = assay: APAP toxicity testing and N-acetyl-L-cysteine intervention in liver organoids; type: cell-based, human; conditions: 10 mM APAP plus 20 mM NAC
[1] = system: cells on PEGSSDA hydrogel; assay: Proliferation on PEGSSDA hydrogel softened with NAC, MTS assay; type: cell-based; conditions: gels softened on day 4 with NAC 100 mmol for 60 minutes, vs control gels
Experimental: In a 96 well plate, we placed 10,000 cells on two sets of nine wells of 50 ul PEGSSDA hydrogel and the wells were filled with DMEM high glucose and cultured for a week. On day 4, one set of gels were softened using NAC 100 mmol for 60 minutes. Now proliferation of cells was compared between control gels and softened gels using MTS assays on day 7.

[2] = cited from earlier work
[3] = system: cells on S3 stiff hydrogel; assay: Proliferation on S3 stiff hydrogel softened with collagenase, MTS assay; type: cell-based; conditions: gels softened on day 4 with collagenase (1:10 dilution) for 10 minutes, vs control gels
Experimental: In a 96 well plate, we placed 10,000 cells on two sets of nine wells of 50 ul S3 stiff hydrogel and the wells were filled with DMEM high glucose and cultured for a week. On day 4, one set of gels were softened using collagenase (1:10 dilution) for 10 minutes. Now proliferation of cells was compared between contol gels and softened gels using MTS assays on day 7.

O=C1Nc2cc(Br)ccc2/C1=C1/Nc2ccccc2/C1=N\O [BIO]
proliferation and migration in the spheroids (U138 spheroids; WNT pathway agonist added to the media): shut down proliferation and migration

CC(=O)N[C@@H](CS)C(=O)O [NAC, N-acetyl-L-cysteine]
detected urea production (liver organoids): increased over time | detected albumin production (liver organoids; day 14): 98 ng/mL | proliferation of cells (MTS, day 7) [1]: Reduced proliferation

Cn1nnc2c(C(N)=O)ncn2c1=O [TMZ, temozolomide]
concentrations in the cerebrospinal fluid (CSF) relative to plasma ([2]; CSF vs plasma): approximately 20% | peak CSF concentrations ([2]; CSF): 26 ± 4 µM

Oc1nc(-c2ccc(C(F)(F)F)cc2)nc2c1CSCC2 [XAV939]
cancer cells' phenotype (morphology) (U138 spheroids; WNT pathway antagonist added to the media): more epithelial appearance than a mesenchymal appearance

collagenase
proliferation of cells (MTS, day 7) [3]: the same results were observed
